According to patent US9562899B2, “Method of detecting OXA-048 carbapenemase producing bacteria” (BIOMÉRIEUX, priority 2012, dated 2017):

What was measured:
[1] = test system: KPC, AmpC and MBL strains; details: disk comprising 30 μg of temocillin; Rosco; cited from earlier work
VIM strains = test: Temocillin MIC, agar dilution (Example 1); format: cell-based, Enterobacteriaceae; details: Ex 1; temocillin alone; MIC in mg/l
Description: (§1) Determination of the MICs with Respect to Temocillin for a Panel of CPE Strains (Using the Agar Dilution Method)
(§2) Reaction medium: the base is a chromLD™ CPS medium (bioMérieux, ref. 43821-43829), comprising a chromogenic substrate for beta-glucuronidase, a chromogenic substrate for beta-glucosidase, a chromogenic substrate for beta-galactosidase and a substrate for deaminase. Temocillin is added to this base medium at the concentrations indicated hereinafter.
(§3) Temocillin range tested: 50-150-200-300 mg/l (disodium temocillin, Eumedica SA, Manage, Belgium).
(§4) The media are inoculated by depositing a spot: 1 μl of a microbial suspension in physiological saline at 0.5 McF, diluted to 1/10.
(§5) Incubation for 24 h at 37° C.
(§6) Reading after incubation for 24 hours. The medium with the smallest temocillin concentration on which a negative growth spot is obtained will be retained as the MIC. The spots having only 3 colonies or less or a total absence of growth were considered to be negative.

AmpC strains [2] = test: Temocillin MIC, agar dilution (Example 1); format: cell-based, Enterobacteriaceae; details: Ex 1; temocillin alone; MIC in mg/l
Description: as §1, §2, §3, §4, §5, §6

NDM-1 strains = test: Temocillin MIC, agar dilution (Example 1); format: cell-based, Enterobacteriaceae; details: Ex 1; temocillin alone; MIC in mg/l
Description: as §1, §2, §3, §4, §5, §6

IMP strains = test: Temocillin MIC, agar dilution (Example 1); format: cell-based, Enterobacteriaceae; details: Ex 1; temocillin alone; MIC in mg/l
Description: as §1, §2, §3, §4, §5, §6

Non-OXA-48 strains = test: Temocillin MIC, agar dilution (Example 1); format: cell-based, Enterobacteriaceae
Description: as §1, §2, §3, §4, §5, §6

BLSE strains = test: Temocillin MIC, agar dilution (Example 1); format: cell-based, Enterobacteriaceae; details: Ex 1; temocillin alone; MIC in mg/l
Description: as §1, §2, §3, §4, §5, §6

KPC strains = test: Temocillin MIC, agar dilution (Example 1); format: cell-based, Enterobacteriaceae; details: Ex 1; temocillin alone; MIC in mg/l
Description: as §1, §2, §3, §4, §5, §6

[3] = test system: strains with impermeability-mediated resistance to carbapenems (IR); test: Temocillin MIC, agar dilution (Example 1); format: cell-based, Enterobacteriaceae; details: Ex 1; temocillin alone; MIC in mg/l
Description: as §1, §2, §3, §4, §5, §6

AmpC strains [4] = test: Temocillin MIC with EDTA in the medium (Example 2); format: cell-based, Enterobacteriaceae; details: Ex 2, MIC in mg/l
Excerpt: Optimization of the Detection Specificity by Introducing Specific Inhibitors Inhibition of Class B Strains (NDM, VIM, IMP) by Adding EDTA
Identical to that used to determine the temocillin MICs by agar dilution (example 1).
For each temocillin concentration, the following concentrations of active EDTA will be tested in the form of disodium EDTA: 0, 1.77, 2.12, 2.47 and 2.83 mmol/l.
Method: identical to the method used in example 1.

For `CO[C@@]1(NC(=O)C(C(=O)O)c2ccsc2)C(=O)N2[C@@H](C(=O)O)C(C)(C)S[C@@H]21` (some centres unmarked) [temocillin], the “inhibition of strains by temocillin disk” value [1] is given as “does not inhibit all KPC, AmpC and MBL strains”, the “No. of VIM strains with MIC 150” value (VIM strains) is given as 5 and the “No. of VIM strains with MIC 200” value (VIM strains) is given as 1. The “No. of VIM strains with MIC 300” value (VIM strains) was 0, the “No. of VIM strains with MIC >300” value (VIM strains) was 1 and the “No. of VIM strains with MIC ≦50” value (VIM strains) was 9. For the same compound, the “No. of AmpC strains with MIC 150” value (AmpC strains [2]) was 0, the “No. of AmpC strains with MIC 200” value (AmpC strains [2]) was 0 and the “No. of AmpC strains with MIC 300” value (AmpC strains [2]) was 0. For the same compound, the “No. of AmpC strains with MIC >300” value (AmpC strains [2]) was 0, the “No. of AmpC strains with MIC ≦50” value (AmpC strains [2]) was 10 and the “No. of NDM-1 strains with MIC 150” value (NDM-1 strains) was 1. The “No. of NDM-1 strains with MIC 200” value (NDM-1 strains) was 0, the “No. of NDM-1 strains with MIC 300” value (NDM-1 strains) was 0 and the “No. of NDM-1 strains with MIC >300” value (NDM-1 strains) was 0. For the same compound, the “No. of NDM-1 strains with MIC ≦50” value (NDM-1 strains) was 25, the “No. of IMP strains with MIC 150” value (IMP strains) was 0 and the “No. of IMP strains with MIC 200” value (IMP strains) was 0. The “No. of IMP strains with MIC 300” value (IMP strains) was 0, the “No. of IMP strains with MIC >300” value (IMP strains) was 1 and the “No. of IMP strains with MIC ≦50” value (IMP strains) was 12. For the same compound, the MIC (Non-OXA-48 strains; most of the non-OXA-48 strains) was ≤ 200 µg/mL, the MIC (Non-OXA-48 strains; only a few non-OXA-48 strains) was > 300 µg/mL and the “No. of BLSE strains with MIC 150” value (BLSE strains) was 0. For the same compound, the “No. of BLSE strains with MIC 200” value (BLSE strains) was 0, the “No. of BLSE strains with MIC 300” value (BLSE strains) was 0 and the “No. of BLSE strains with MIC >300” value (BLSE strains) was 2. The “No. of BLSE strains with MIC ≦50” value (BLSE strains) was 8, the “No. of KPC strains with MIC 150” value (KPC strains) was 1 and the “No. of KPC strains with MIC 200” value (KPC strains) was 0. The “No. of KPC strains with MIC 300” value (KPC strains) was 0, the “No. of KPC strains with MIC >300” value (KPC strains) was 3 and the “No. of KPC strains with MIC ≦50” value (KPC strains) was 8. For the same compound, the “No. of IR strains with MIC 150” value [3] was 2, the “No. of IR strains with MIC 200” value [3] was 0 and the “No. of IR strains with MIC 300” value [3] was 0. The “No. of IR strains with MIC >300” value [3] was 0, the “No. of IR strains with MIC ≦50” value [3] was 8 and the “No. of AmpC strains with MIC 150” value (AmpC strains [4]; 0 mmol/l of EDTA) was 0. For the same compound, the “No. of AmpC strains with MIC 200” value (AmpC strains [4]; 0 mmol/l of EDTA) was 0, the “No. of AmpC strains with MIC 300” value (AmpC strains [4]; 0 mmol/l of EDTA) was 0 and the “No. of AmpC strains with MIC >300” value (AmpC strains [4]; 0 mmol/l of EDTA) was 0. For the same compound, the “No. of AmpC strains with MIC ≦50” value (AmpC strains [4]; 0 mmol/l of EDTA) was 10, the “No. of AmpC strains with MIC 150” value (AmpC strains [4]; 1.77 mmol/l of active EDTA) was 1 and the “No. of AmpC strains with MIC 200” value (AmpC strains [4]; 1.77 mmol/l of active EDTA) was 0. For the same compound, the “No. of AmpC strains with MIC 300” value (AmpC strains [4]; 1.77 mmol/l of active EDTA) was 0, the “No. of AmpC strains with MIC >300” value (AmpC strains [4]; 1.77 mmol/l of active EDTA) was 0 and the “No. of AmpC strains with MIC ≦50” value (AmpC strains [4]; 1.77 mmol/l of active EDTA) was 9. The “No. of AmpC strains with MIC 150” value (AmpC strains [4]; 2.12 mmol/l of active EDTA) was 1, the “No. of AmpC strains with MIC 200” value (AmpC strains [4]; 2.12 mmol/l of active EDTA) was 0 and the “No. of AmpC strains with MIC 300” value (AmpC strains [4]; 2.12 mmol/l of active EDTA) was 0. The “No. of AmpC strains with MIC >300” value (AmpC strains [4]; 2.12 mmol/l of active EDTA) was 0, the “No. of AmpC strains with MIC ≦50” value (AmpC strains [4]; 2.12 mmol/l of active EDTA) was 9 and the “No. of AmpC strains with MIC 150” value (AmpC strains [4]; 2.47 mmol/l of active EDTA) was 0. For the same compound, the “No. of AmpC strains with MIC 200” value (AmpC strains [4]; 2.47 mmol/l of active EDTA) was 0 and the “No. of AmpC strains with MIC 300” value (AmpC strains [4]; 2.47 mmol/l of active EDTA) was 0.
